Some test systems named below: UACC-62 melanoma; DU-145 prostate; MDA-MB-435; HL-60(TB) leukemia; MALME-3M melanoma; MOLT-4 leukemia; 786-0 renal; OVCAR-8 ovarian; HOP-62 NSCLC; PC-3 prostate; KM12 colon; OVCAR-5 ovarian; SK-MEL-5 melanoma; MDA-N; SNB-75 CNS; NCI-H226 lung; M14 melanoma.
Common to all, as to experiment: inhibition of tumour cell growth, NCI panel, 48 h

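These data come from cells grown in 96-well plates and exposed to compound for 48 hours at five concentrations. TGI: total growth inhibition.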 Bounds are passed on as bounds.

Regarding `COc1cc(CN=c2nc(N(C)C)ss2)cc(OC)c1OC`, the TGI with UACC-62 melanoma was greater than 10 µM; in the test with DU-145 prostate, greater than 10 µM; in the test on MDA-MB-435, greater than 10 µM; in the test on HL-60(TB) leukemia, 4.47 µM; with MALME-3M melanoma, greater than 9.27 µM; in the test with MOLT-4 leukemia, 7.18 µM. Further, the TGI in the test with 786-0 renal was greater than 5.44 µM; in the test on OVCAR-8 ovarian, greater than 8.92 µM; in the test with HOP-62 NSCLC it was greater than 10 µM; in the test on PC-3 prostate, greater than 10 µM; in the test with KM12 colon, greater than 10 µM; with OVCAR-5 ovarian it was greater than 10 µM. The TGI with SK-MEL-5 melanoma, in the test with MDA-N, in the test with SNB-75 CNS, in the test on NCI-H226 lung and in the test with M14 melanoma was greater than 10 µM throughout.

Consider `CCCc1nnc2sc(COc3ccc(OCc4nn5c(CCC)nnc5s4)c(Cl)c3)nn12`, for which the TGI in the test on UACC-62 melanoma is 59.4 µM; in the test on DU-145 prostate, greater than 100 µM; in the test with MDA-MB-435 it was 59 µM; in the test with HL-60(TB) leukemia it was 40.9 µM; with MALME-3M melanoma, greater than 100 µM; in the test with MOLT-4 leukemia it was greater than 100 µM. Further, the TGI in the test with 786-0 renal, in the test with OVCAR-8 ovarian, in the test with HOP-62 NSCLC, in the test on PC-3 prostate, with KM12 colon and with OVCAR-5 ovarian was greater than 100 µM each time. Also, the TGI is 21.2 µM in the test on SK-MEL-5 melanoma; 45.4 µM in the test on MDA-N; 73.7 µM in the test with SNB-75 CNS; greater than 100 µM in the test with NCI-H226 lung; 73 µM in the test on M14 melanoma.

Turning to `O=C1C2C3C4C1C1C2[C@H](OCc2ccccc2)C3C1[C@H]4OCc1ccccc1` (stereo partly specified), the TGI is greater than 100 µM in the test on UACC-62 melanoma; greater than 100 µM with DU-145 prostate; greater than 100 µM in the test with MDA-MB-435; 50.9 µM in the test on HL-60(TB) leukemia; greater than 100 µM with MALME-3M melanoma; greater than 100 µM with MOLT-4 leukemia. Moreover, the TGI in the test with 786-0 renal is greater than 100 µM; in the test with OVCAR-8 ovarian, greater than 100 µM; in the test on HOP-62 NSCLC, greater than 100 µM; with PC-3 prostate, greater than 100 µM; in the test on KM12 colon it was greater than 100 µM; with OVCAR-5 ovarian, 56 µM. The TGI in the test with SK-MEL-5 melanoma, in the test on MDA-N, with SNB-75 CNS, in the test with NCI-H226 lung and in the test with M14 melanoma was greater than 100 µM in each case.

Regarding `Cc1cn2cc(-c3cccs3)nc2s1`, the TGI in the test on UACC-62 melanoma, in the test on DU-145 prostate, with MDA-MB-435, in the test on HL-60(TB) leukemia, in the test with MALME-3M melanoma and in the test on MOLT-4 leukemia was greater than 100 µM in each case. Moreover, the TGI with 786-0 renal, in the test on OVCAR-8 ovarian, with HOP-62 NSCLC, in the test with PC-3 prostate, with KM12 colon and in the test on OVCAR-5 ovarian was greater than 100 µM each time. Further, the TGI in the test on SK-MEL-5 melanoma, in the test on MDA-N, with SNB-75 CNS, with NCI-H226 lung and in the test on M14 melanoma was greater than 100 µM each time.

With `CC(NCc1c(O)ccc2c(-c3ccccc3)cc(=O)oc12)C(=O)O` (stereo unspecified), the TGI in the test on UACC-62 melanoma, in the test with DU-145 prostate, in the test on MDA-MB-435, in the test on HL-60(TB) leukemia, in the test with MALME-3M melanoma and with MOLT-4 leukemia was greater than 100 µM throughout. For the same compound, the TGI in the test on 786-0 renal, with OVCAR-8 ovarian, with HOP-62 NSCLC, with PC-3 prostate, in the test with KM12 colon and in the test with OVCAR-5 ovarian was greater than 100 µM throughout. Besides, the TGI in the test on SK-MEL-5 melanoma, in the test on MDA-N, with SNB-75 CNS, in the test with NCI-H226 lung and in the test on M14 melanoma was greater than 100 µM throughout.

Turning to `CC(=O)c1ccc(Br)cc1NC1=CC(=O)c2ncccc2C1=O`, the TGI came out at 6.13 µM with UACC-62 melanoma; 16.4 µM in the test on DU-145 prostate; 3.06 µM with MDA-MB-435; 3.61 µM in the test with HL-60(TB) leukemia; 5.69 µM in the test with MALME-3M melanoma; 9.6 µM in the test with MOLT-4 leukemia. For the same compound, the TGI with 786-0 renal was found to be 15.3 µM; in the test on OVCAR-8 ovarian, 18.2 µM; with HOP-62 NSCLC, 13.1 µM; in the test on PC-3 prostate, 13.5 µM; in the test with KM12 colon, 11.7 µM; in the test with OVCAR-5 ovarian, 33.8 µM. Also, the TGI in the test on SK-MEL-5 melanoma came to 1.3 µM; with MDA-N, 3.62 µM; in the test with SNB-75 CNS, 5.58 µM; in the test with NCI-H226 lung, 15.5 µM; in the test with M14 melanoma it was 10.6 µM.

As to `Clc1ccc(Cc2nc3ccccc3o2)cc1`, the TGI in the test on UACC-62 melanoma, in the test on DU-145 prostate, in the test with MDA-MB-435, in the test on HL-60(TB) leukemia, in the test on MALME-3M melanoma and in the test on MOLT-4 leukemia was greater than 100 µM in each case. Besides, the TGI in the test on 786-0 renal, in the test with OVCAR-8 ovarian, with HOP-62 NSCLC, in the test with PC-3 prostate, in the test with KM12 colon and in the test with OVCAR-5 ovarian was greater than 100 µM each time. In addition, the TGI was greater than 100 µM with SK-MEL-5 melanoma; greater than 100 µM in the test with MDA-N; 91.2 µM in the test with SNB-75 CNS; greater than 100 µM in the test with NCI-H226 lung; greater than 100 µM in the test on M14 melanoma.

Turning to `C[N+]1(C)C2CC(OC(=O)C(CO)c3ccccc3)CC1C1OC12` (stereo unspecified), the TGI in the test on UACC-62 melanoma, with DU-145 prostate, in the test with MDA-MB-435, in the test with HL-60(TB) leukemia, with MALME-3M melanoma and in the test on MOLT-4 leukemia was greater than 100 µM in each case. For the same compound, the TGI in the test on 786-0 renal, in the test on OVCAR-8 ovarian, in the test with HOP-62 NSCLC, in the test with PC-3 prostate, in the test with KM12 colon and with OVCAR-5 ovarian was greater than 100 µM in each case. For the same compound, the TGI with SK-MEL-5 melanoma, in the test with MDA-N, in the test with SNB-75 CNS, in the test on NCI-H226 lung and in the test on M14 melanoma was greater than 100 µM throughout.

(Values after PubChem BioAssay (NCI).)
